{"source": "patent US20240228487A1", "about": "“FUSED HETEROCYCLIC COMPOUND AND APPLICATION THEREOF, PHARMACEUTICAL COMPOSITIONS CONTAINING SAME AND APPLICATION THEREOF” (ZHEJIANG UNIVERSITY, priority 2021, published 2024)", "key": {"[1]": {"test_system": "C57BL/6 mice, transient middle cerebral artery occlusion (tMCAO)", "test": "mouse tMCAO cerebral stroke model (Embodiment 69)", "type": "in vivo", "details": "3 mg/kg tail vein injection 3 h after reperfusion", "from_the_text": "After isoflurane inhalation gas anesthesia of 22-25 g male C57BL/6 mice, the fiber-optic probes of a laser Doppler flowmeter were fixed to the skull of the mice with glue for monitoring the cerebral blood flow of the middle cerebral artery (MCA) supplying cortex. The mice were fixed in the supine position, and the middle of the neck was dehaired and routinely sterilized with 75% alcohol. An approximately 1.5 cm incision was made in the middle of the neck, and the skin of the neck was incised, and the muscle and fascia were separated along the inner edge of the sternocleidomastoideole; the right carotid artery sheath was bluntly separated to expose the right common carotid artery (CCA), external carotid artery (ECA), and internal carotid artery (ICA); after the surgical area was exposed satisfactorily, the CCA and ICA were temporarily clipped with arterial clips, and a small incision was made at the proximal end of the ECA with microsurgical scissors, and a nylon monofilament suture was inserted from the small incision along the ECA, and gently pushed into the intracranial area in the direction of the ICA for about 11.5±0.5 mm, blocking the beginning of the middle cerebral artery. Only the animals whose blood flow values decreased to 20% of the basic value were selected according to the blood flow data monitored by the flowmeter. After 90 minutes of ischemia, the monofilament sutures were gently withdrawn out, the arterial stumps were tied tightly, the surgical wounds were inspected, the bleeding was thoroughly stopped, a small amount of penicillin powder was sprinkled locally to prevent infection, and the subcutaneous tissues and the skin were sutured layer by layer, thus completing the ischemia reperfusion injury model. A heating plate was used to maintain the body temperature of the animals during surgery. After completion of the surgery, the sutured mice were placed in a heat preservation and humidification box until the mice recovered activities. Animals in the sham-operated group were subjected to the same surgical procedure but without middle artery occlusion.\nClean-grade male C57BL/6 mice were randomly divided into five groups, namely, the sham-operated group, the group of the positive control drug Edaravone(3 mg/kg), and the 3 mg/kg dose group of compounds II-1, II-23 and III-1.\nThe mice were subjected to tail vein injections of Edaravone, II-1, II-23, and III-1 respectively 3 h after modeling and reperfusion; the sham-operated group was injected with an equal volume of saline, and II-1, II-23, III-1, and Edaravone were dissolved in 0.9% saline solution. Neurological function scores and TTC staining of mice were performed 24 h after ischemia-reperfusion, and the results are shown in FIGS. 6, 7 and 8.\nThe mice were decapitated 24 h after ischemia-reperfusion, the coronal planes of the brains were cut into brain slices of about 2 mm thickness uniformly. The brain slices were placed in 0.25% 2,3,5-triphenyltetrazolium chloride (TTC) solution, incubated at 37° C. Celsius for 30 minutes away from light, stained, and fixed in 4% paraformaldehyde neutral buffer (pH 7.4) overnight. The processed brain slices were photographed using a macro camera, and Image J image analysis software was used to calculate and count the cerebral infarct volume, and the measured results are shown in FIG. 7. The formula for calculating the percentage of infarct volume was (sum of the left uninfarcted area −sum of the right uninfarcted area)/sum of the left uninfarcted area×100%.\nAccording to the five-level, four-point standard of score, the mortality and neuromotor dysfunction scores of each group of mice were performed, and the results are shown in FIG. 8. […]"}, "[2]": {"test_system": "dopaminergic neurons differentiated from iPSC derived from disseminated PD patients", "test": "mitochondrial fusion morphology (Mitotracker, Girk2 labeling) of iPSC differentiated dopaminergic neurons", "type": "cell-based, human", "details": "II-23 0.6 μM, ACA 0.5 μM; Mitotracker staining, Girk2-positive neurons", "procedure": "Using normal and disseminated PD patient-derived induced pluripotent stem cells (iPSC), performing drug interventions using the TRPM2 inhibitors ACA and II-23 after they were induced and differentiated into mature dopaminergic neurons, the drug treating method is as follows: • a. Calculating the materials for the experiment, and starting preparing when the dopaminergic neurons are differentiated to the 8th day. The petri dishes should be treated with 33 μg/mL PDL overnight and washed with sterilized water. After drying, 2 μg/mL of laminin was added and incubated overnight. Both PDL and laminin can be recycled for reuse. • b. […] Fluorescence confocal imaging was performed using a confocal dish inoculated with 2 mL/dish, and cell viability assays were performed using a 96-well plate inoculated with 100 μL/well. […]\nPositive dopamine neurons were labeled with a dopaminergic neuron marker molecule Girk2 antibody susceptible for SNc, and cellular mitochondria were labeled with the mitochondrial dye mitotracker as in FIG. 15. […] Finally, performing the fluorescence imaging: removing the secondary antibody, and washing three times with 1×PBS, adding 50% Glycerol for fluorescence protection, and then imaging with a Zeiss LSM880 laser confocal microscope, as shown in FIG. 15."}, "[3]": {"test_system": "dopaminergic neurons differentiated from iPSC derived from disseminated PD patients", "test": "cell viability (cell titer glo) of iPSC differentiated dopaminergic neurons", "type": "cell-based, human", "details": "II-23 0.6 μM, ACA 0.5 μM, from day 15 of culture; CTG kit", "procedure": "Using normal and disseminated PD patient-derived induced pluripotent stem cells (iPSC), performing drug interventions using the TRPM2 inhibitors ACA and II-23 after they were induced and differentiated into mature dopaminergic neurons, the drug treating method is as follows: • a. Calculating the materials for the experiment, and starting preparing when the dopaminergic neurons are differentiated to the 8th day. The petri dishes should be treated with 33 μg/mL PDL overnight and washed with sterilized water. After drying, 2 μg/mL of laminin was added and incubated overnight. Both PDL and laminin can be recycled for reuse. • b. Digesting and collecting the differentiated cells with Accutase, and counting with a cell counting plate, and then diluting to 500,000/mL with maturation medium (Y-27632 should be added). Fluorescence confocal imaging was performed using a confocal dish inoculated with 2 mL/dish, and cell viability assays were performed using a 96-well plate inoculated with 100 μL/well. Taking this time point as the 10th day, changing to Y-27632-free medium on the 11th day, and changing the medium every two days. • c. When the cells were cultured to the 15th day, treating the drugs to a final concentration with the medium, the working concentration of ACA is 0.5 μM, and the working concentration of II-23 is 0.6 μM, and the drug-containing medium was changed every four days. […]"}}, "data": [{"compound": "CCN(CC)C(=O)c1cc(C(=O)c2ccccc2)n2cccc2c1", "note": "[II-23, 5-Benzoyl-N, N-diethylindolizine-7-formamide]", "values": [{"measurement": "area of cerebral infarction caused by tMCAO", "setting": "[1]; TTC staining 24 h after ischemia-reperfusion", "value": "significantly reduced"}, {"measurement": "neuromotor dysfunction scores caused by tMCAO", "setting": "[1]; scored 24 h after ischemia-reperfusion", "value": "significantly reduced"}, {"measurement": "excessive mitochondrial fusion in dopaminergic neurons derived from PD patients", "setting": "[2]", "value": "reversed"}, {"measurement": "cell viability of differentiated dopaminergic neurons derived from disseminated PD patients", "setting": "[3]", "value": "restored"}]}]}
